Several values for one entry are separate records, joined by “and”; a condition that tells them apart may be missing. Equal values may be shown once. Read-outs that look alike come from different tables or passages of the source. Blank lines part the entries; values can stand above or below the compound they belong to.
How the values were obtained:
Assay type in all cases: binding
CHRM2 = biological target: T1, CHRM2 (Homo sapiens, UniProt P08172); assay: NanoBRET screen HiBiT-CHRM2 in HEK293
T1 construct: purchased Promega (in-house HiBiT-GPCR construct library, NanoBRET)
T1 sequence (P08172 1-466): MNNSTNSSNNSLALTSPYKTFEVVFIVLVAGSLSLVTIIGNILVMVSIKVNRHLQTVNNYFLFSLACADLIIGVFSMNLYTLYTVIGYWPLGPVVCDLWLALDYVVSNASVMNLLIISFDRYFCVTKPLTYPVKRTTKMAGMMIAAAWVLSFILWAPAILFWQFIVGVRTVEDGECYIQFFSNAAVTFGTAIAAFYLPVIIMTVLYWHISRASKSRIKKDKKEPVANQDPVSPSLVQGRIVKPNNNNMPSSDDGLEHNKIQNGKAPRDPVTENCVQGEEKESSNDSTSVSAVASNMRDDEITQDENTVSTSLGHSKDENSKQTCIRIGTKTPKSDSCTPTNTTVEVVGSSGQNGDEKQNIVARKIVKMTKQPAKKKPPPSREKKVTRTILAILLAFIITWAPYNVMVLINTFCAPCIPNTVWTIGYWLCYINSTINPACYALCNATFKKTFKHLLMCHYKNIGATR
Procedure: Each tracer candidate was screened across the entire library of HiBiT-GPCR constructs using NanoBRET as the detection modality. As depicted in Figure 4A, the specificity of interactions was evaluated through decrease in BRET due to competitive displacement of a bound tracer by excess parental compound. Each tracer was analyzed for binding to each HiBiT-GPCR fusion in the absence and in the presence of competing parental compound. Briefly, HEK293 cells were transfected with HiBiT-GPCR constructs diluted into promoterless DNA to reduce expression and maximize translocation to the cell surface. Each tracer candidate was then screened at concentrations of 1 μM and 0.1 μM across cells expressing these fusions. Cells were treated for 1.5 h with tracer either alone or in the presence of 20 μM competing parental compound (i.e., control). BRET was measured upon addition of purified LgBiT and subsequent complementation with HiBiT genetically fused to a GPCR. The specificity of interactions was assessed through a decrease in BRET signal due to competitive displacement of the bound tracer. To further gauge the robustness of these interactions, the fold response over the control (i.e., BRETtracer/BRETcontrol) was calculated. We chose a 1.5-fold response, which translates to ≥7-fold signal over noise as the minimal threshold required to score an interaction as positive.
HiBiT-GPCR DNA constructs were diluted in 10 mM Tris pH 8 to a final concentration of 0.01 μg/μL, arrayed in 96-well plates and stored at −20 °C. For transfection, HEK293 cells were suspended in Opti-MEM (without phenol red) supplemented with 2% fetal bovine serum (Seradigm) and 100 units/mL penicillin–streptomycin (Gibco) at a final concentration of 220,000 cells/mL and dispensed into white 96-well plates at 90 μL/well. Subsequent transfections and screens were carried using an Agilent Bravo Automated Liquid Handling Platform. First, the 96-well HiBiT DNA arrays were diluted 25-fold in Opti-MEM (without serum or phenol red) to a final concentration of 0.0004 μg/μL and 20 μL of the diluted DNAs were transferred into new 96-well plates. Next, promoterless carrier DNA (1 μg/μL) was diluted 25-fold (0.04 μg/μL) and then dispensed into the diluted arrays at 20 μL/well. Following brief mixing, Viafect transfection reagent (Promega) diluted 16-fold into Opti-MEM was dispensed into the plates at 40 μL/well. After mixing by pipetting, plates were incubated for 10 min on the pipetting station deck. The DNA-transfection reagent complexes were then added to plates containing cells. To facilitate the screen, 10 μL of DNA-transfection reagent complexes were added in duplicates to the top 4 and bottom 4 rows, resulting in two identical 48-well arrays per plate. Plates with transfected cells were incubated for 18–20 h at 37 °C/5% CO2. A screen of each tracer across the entire library using two different concentrations requires duplicate plates of transfected cells. Depending on the number of tracers being screened, transfections can be scaled up using the same ratios. The next day, for each tracer, four 20× screening solutions in tracer dilution buffer (Promega) were prepared: two duplicates at final concentration of 20 μM and two duplicates at a final concentration of 2 μM. […] The four resulting solutions were diluted 4-fold in Opti-MEM without serum or phenol red to generate 5× solutions (5 µM and 0.5 µM tracer +/− 100 μM competing compound). To screen the library, a BioTek MultiFlo FX liquid dispenser was used to dispense 22.5 µL of tracer solution to the top 4 rows and 22.5 µL tracer + competing compound solution to the 4 bottom rows. Plates were briefly mixed on an orbital shaker and incubated for 1.5 h at room temperature. […] Plates were briefly mixed on an orbital shaker and incubated for 15 min to allow complementation.

CHRM1 = biological target: T2, CHRM1 (Homo sapiens, UniProt P11229); assay: NanoBRET screen HiBiT-CHRM1 in HEK293
T2 construct: purchased Promega (in-house HiBiT-GPCR construct library, NanoBRET)
T2 sequence (P11229 1-460): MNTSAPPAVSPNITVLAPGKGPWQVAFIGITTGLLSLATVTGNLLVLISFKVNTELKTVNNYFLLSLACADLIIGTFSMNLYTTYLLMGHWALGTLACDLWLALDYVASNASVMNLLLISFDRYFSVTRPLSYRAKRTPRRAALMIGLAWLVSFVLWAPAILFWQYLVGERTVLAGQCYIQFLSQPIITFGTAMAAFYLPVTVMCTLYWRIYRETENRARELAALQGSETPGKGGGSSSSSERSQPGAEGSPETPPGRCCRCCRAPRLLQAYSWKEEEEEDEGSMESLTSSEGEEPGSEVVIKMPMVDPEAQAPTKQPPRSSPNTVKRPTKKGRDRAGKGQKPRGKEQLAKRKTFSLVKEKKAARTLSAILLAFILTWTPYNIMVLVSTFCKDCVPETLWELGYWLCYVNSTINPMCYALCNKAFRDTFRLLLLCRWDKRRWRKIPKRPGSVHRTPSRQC

CHRM3 = biological target: T3, CHRM3 (Homo sapiens, UniProt P20309); assay: NanoBRET screen HiBiT-CHRM3 in HEK293
T3 construct: purchased Promega (in-house HiBiT-GPCR construct library, NanoBRET)
T3 sequence (P20309 whole entry): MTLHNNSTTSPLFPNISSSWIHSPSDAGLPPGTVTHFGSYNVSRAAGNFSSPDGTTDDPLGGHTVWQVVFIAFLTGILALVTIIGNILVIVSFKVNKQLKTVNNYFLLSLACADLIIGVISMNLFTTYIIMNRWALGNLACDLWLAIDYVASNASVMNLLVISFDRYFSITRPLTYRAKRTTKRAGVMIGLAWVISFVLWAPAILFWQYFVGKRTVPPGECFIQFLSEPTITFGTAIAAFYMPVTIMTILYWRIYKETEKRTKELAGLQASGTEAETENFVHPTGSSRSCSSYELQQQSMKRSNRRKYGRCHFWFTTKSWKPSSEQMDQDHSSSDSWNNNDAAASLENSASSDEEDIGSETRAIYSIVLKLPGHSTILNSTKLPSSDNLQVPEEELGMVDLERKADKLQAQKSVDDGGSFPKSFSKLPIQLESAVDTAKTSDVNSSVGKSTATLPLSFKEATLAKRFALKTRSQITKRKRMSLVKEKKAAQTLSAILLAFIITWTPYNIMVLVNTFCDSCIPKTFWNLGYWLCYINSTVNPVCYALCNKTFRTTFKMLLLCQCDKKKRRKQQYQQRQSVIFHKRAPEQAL

HRH1 = biological target: T4, HRH1 (Homo sapiens, UniProt P35367); assay: NanoBRET screen HiBiT-HRH1 in HEK293
T4 construct: purchased Promega (in-house HiBiT-GPCR construct library, NanoBRET)
T4 sequence (P35367 whole entry): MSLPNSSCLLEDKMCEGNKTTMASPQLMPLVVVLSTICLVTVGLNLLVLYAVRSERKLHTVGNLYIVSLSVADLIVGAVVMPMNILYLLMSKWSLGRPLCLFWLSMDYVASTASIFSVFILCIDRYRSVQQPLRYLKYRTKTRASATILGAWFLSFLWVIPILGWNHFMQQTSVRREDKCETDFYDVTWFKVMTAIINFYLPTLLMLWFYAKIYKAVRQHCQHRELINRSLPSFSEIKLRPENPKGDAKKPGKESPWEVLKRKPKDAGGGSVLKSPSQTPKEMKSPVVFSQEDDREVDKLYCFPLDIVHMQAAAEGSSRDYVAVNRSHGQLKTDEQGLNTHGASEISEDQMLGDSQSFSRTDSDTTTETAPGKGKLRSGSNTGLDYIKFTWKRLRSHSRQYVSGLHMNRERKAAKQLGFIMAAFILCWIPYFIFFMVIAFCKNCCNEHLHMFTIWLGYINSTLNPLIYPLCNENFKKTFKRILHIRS

SMILES: Cc1nc2n(c(=O)c1CCN1CCC(c3noc4cc(F)ccc34)CC1)CCCC2OC(=O)NCCOCCOCCOCCOCCNC(=O)CCc1ccc2n1[B-](F)(F)[N+]1=C(c3ccc[nH]3)C=CC1=C2 (centres unmarked) [Risperidone-2-NB590]
NanoBRET Fold Response (CHRM2; CHRM2, tracer 0.1μM): 1.09 | NanoBRET Fold Response (CHRM2; CHRM2, tracer 1μM): 1.26

NanoBRET Fold Response (CHRM1; CHRM1, 0.1μM): 1.01 | NanoBRET Fold Response (CHRM1; CHRM1, 1μM): 1.04 | NanoBRET Fold Response (CHRM2; CHRM2, 0.1μM): 1.05 | NanoBRET Fold Response (CHRM2; CHRM2, 1μM): 0.96 | NanoBRET Fold Response (CHRM3; CHRM3, 0.1μM): 1.07 | NanoBRET Fold Response (CHRM3; CHRM3, 1μM): 1.09 | NanoBRET Fold Response (HRH1; HRH1, 0.1μM): 1.05 | NanoBRET Fold Response (HRH1; HRH1, 1μM): 0.92
SMILES: CCOC(=O)c1cc(C#N)c(N2CCC(C(=O)NS(=O)(=O)Cc3ccccc3/C=C/C(=O)NCCNC(=O)CCc3ccc4n3[B-](F)(F)[N+]3=C(c5ccc[nH]5)C=CC3=C4)CC2)nc1C [AZD1283-1-NB590]

SMILES: Cc1cc2c(s1)Nc1ccccc1N=C2N1CCN(CCCNC(=O)CCOCCOCCOCCOCCNC(=O)CCc2ccc3n2[B-](F)(F)[N+]2=C(c4ccc[nH]4)C=CC2=C3)CC1 [Olanzapine-a-2-NB590]
NanoBRET Fold Response (CHRM2; CHRM2, tracer 1μM): 1.30

SMILES: COc1ccccc1N1CCN(CCCCN2C(=O)c3ccc(CNC(=O)CCOCCNC(=O)c4ccc(CNC(=O)CCc5ccc6n5[B-](F)(F)[N+]5=C(c7ccc[nH]7)C=CC5=C6)cc4)cc3C2=O)CC1 [NAN-190-3-NB590]
NanoBRET Fold Response (CHRM1; CHRM1, tracer 0.1μM): 0.89 | NanoBRET Fold Response (CHRM1; CHRM1, tracer 1μM): 0.92 | NanoBRET Fold Response (CHRM2; CHRM2, tracer 0.1μM): 1.14 | NanoBRET Fold Response (CHRM2; CHRM2, tracer 1μM): 0.95 | NanoBRET Fold Response (CHRM3; CHRM3, tracer 0.1μM): 1.10 | NanoBRET Fold Response (CHRM3; CHRM3, tracer 1μM): 1.12 | NanoBRET Fold Response (HRH1; HRH1, tracer 0.1μM): 2.18 | NanoBRET Fold Response (HRH1; HRH1, tracer 1μM): 1.84

SMILES: CC(C)N(CC[C@H](c1ccccc1)c1cc(CCNC(=O)CCOCCOCCOCCOCCNC(=O)CCc2ccc3n2[B-](F)(F)[N+]2=C(c4ccc[nH]4)C=CC2=C3)ccc1O)C(C)C [Tolterodine-2-NB590]
NanoBRET Fold Response (CHRM1): 1.59 and 2.16 | NanoBRET Fold Response (CHRM2; CHRM2, tracer 0.1μM): 2.98 | NanoBRET Fold Response (CHRM2; CHRM2, tracer 1μM): 1.51 | NanoBRET Fold Response (CHRM3; CHRM3, tracer 0.1μM): 1.67 | NanoBRET Fold Response (CHRM3; CHRM3, tracer 1μM): 1.52 | NanoBRET Fold Response (HRH1; HRH1, tracer 0.1μM): 1.08 | NanoBRET Fold Response (HRH1; HRH1, tracer 1μM): 1.58

SMILES: CN(C)CCC=C1c2ccccc2CCc2ccc(C(=O)NCCNC(=O)CCOCCOCCOCCOCCNC(=O)CCc3ccc4n3[B-](F)(F)[N+]3=C(c5ccc[nH]5)C=CC3=C4)cc21 [Amitriptyline-b-2-NB590]
NanoBRET Fold Response (CHRM2; tracer at 0.1μM, listed as amitriptyline-b-2-NB590): 2.20 | NanoBRET Fold Response (CHRM2; tracer at 1μM, listed as amitriptyline-b-2-NB590): 1.55

SMILES: O=C(CCOCCOCCOCCOCCNC(=O)CCc1ccc2n1[B-](F)(F)[N+]1=C(c3ccc[nH]3)C=CC1=C2)NCCCN1CCN(C2=Nc3ccccc3Oc3ccc(Cl)cc32)CC1 [Loxapine-a-2-NB590]
NanoBRET Fold Response (CHRM1): 0.90 and 1.14 | NanoBRET Fold Response (CHRM2; CHRM2, tracer 0.1μM): 1.07 | NanoBRET Fold Response (CHRM2; CHRM2, tracer 1μM): 1.04 | NanoBRET Fold Response (CHRM3): 0.96 and 1.07 | NanoBRET Fold Response (HRH1): 3.64 and 4.76

SMILES: CN(C)CCC=C1c2ccccc2CCc2ccc(C(=O)NCCNC(=O)CCOCCOCCOCCOCCNC(=O)CCc3ccc4n3[B-](F)(F)[N+]3=C(c5ccc[nH]5)C=CC3=C4)cc21 [Amitriptyline-a-2-NB590]
NanoBRET Fold Response (CHRM2; tracer at 0.1μM): 1.10 | NanoBRET Fold Response (CHRM2; tracer at 1μM): 0.98
